Measurements: ChEMBL document CHEMBL1201862, “PubChem BioAssay data set” (2004)
The source made the active and inactive calls.

What was measured:
[1] = biological target: T1, High affinity choline transporter 1 (Homo sapiens, UniProt Q9GZV3); test: human choline transporter blockers, potency – cell-based, 5-point CRC, membrane potential dye, dose response (AID 504840); type: functional
T1 sequence (Q9GZV3 whole entry): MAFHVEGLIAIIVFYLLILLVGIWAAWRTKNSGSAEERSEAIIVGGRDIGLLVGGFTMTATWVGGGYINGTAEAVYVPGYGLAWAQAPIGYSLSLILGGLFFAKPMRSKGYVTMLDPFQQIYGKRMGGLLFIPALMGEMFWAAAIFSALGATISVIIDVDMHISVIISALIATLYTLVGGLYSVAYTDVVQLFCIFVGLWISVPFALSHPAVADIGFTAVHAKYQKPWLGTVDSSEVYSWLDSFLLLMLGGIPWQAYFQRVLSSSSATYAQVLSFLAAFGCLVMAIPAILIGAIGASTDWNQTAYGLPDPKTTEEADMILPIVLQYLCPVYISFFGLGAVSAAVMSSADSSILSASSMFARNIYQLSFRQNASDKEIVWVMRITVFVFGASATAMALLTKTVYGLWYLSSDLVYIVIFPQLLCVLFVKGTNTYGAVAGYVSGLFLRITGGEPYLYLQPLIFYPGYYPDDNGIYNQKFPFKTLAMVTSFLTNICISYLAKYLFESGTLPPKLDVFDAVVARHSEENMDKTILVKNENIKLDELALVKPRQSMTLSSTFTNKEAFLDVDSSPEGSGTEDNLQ

HEK293 [2] = test: cells; type: functional, cell-based; conditions: Homo sapiens
[3] = biological target: T2, Nuclear receptor subfamily 0 group B member 1 (Homo sapiens, UniProt P51843); test: Luminescence-based cell-based high throughput dose response assay for inhibitors of the orphan nuclear receptor subfamily 0, group B, member 1 (DAX1; NR0B1). [Related pubchem assays (depositor defined):AID504766, AID504790]; type: functional
T2 sequence (P51843 whole entry): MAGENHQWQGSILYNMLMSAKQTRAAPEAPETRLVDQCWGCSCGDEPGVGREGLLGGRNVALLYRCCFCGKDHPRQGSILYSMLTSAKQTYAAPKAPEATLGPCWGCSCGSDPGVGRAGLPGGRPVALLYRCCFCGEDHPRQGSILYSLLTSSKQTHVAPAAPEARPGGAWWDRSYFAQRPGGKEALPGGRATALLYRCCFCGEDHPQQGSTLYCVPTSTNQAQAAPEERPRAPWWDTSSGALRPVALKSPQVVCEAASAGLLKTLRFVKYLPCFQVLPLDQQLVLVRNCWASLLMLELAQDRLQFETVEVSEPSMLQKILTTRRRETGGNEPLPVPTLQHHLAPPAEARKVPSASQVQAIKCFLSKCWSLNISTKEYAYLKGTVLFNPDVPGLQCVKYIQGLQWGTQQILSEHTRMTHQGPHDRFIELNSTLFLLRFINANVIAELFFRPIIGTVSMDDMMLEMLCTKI

HEK293 [4] = test: inhibition of NOD1-driven NF-kB reporter – cell-based, luminescence, uHTS, primary screen (AID 1578); type: functional; conditions: Homo sapiens
HEK293 [5] = test: cells; type: functional, cell-based; conditions: Homo sapiens; remark: listed apart in the source
HEK293 [6] = test: cells; type: functional, cell-based; conditions: Homo sapiens; remark: listed apart in the source
HEK293 [7] = test: NOD2 signaling inhibitors in MDP-stimulated cells, cell-based, uHTS, luminescence (AID 2001); type: functional; conditions: Homo sapiens
Aminopeptidase N = biological target: T3, Aminopeptidase N (Plasmodium falciparum FcB1/Columbia, UniProt O96935); test: malaria alanyl aminopeptidase activity blockers – biochemical, fluorogenic H-Leu-NHMec substrate, 1536-well (AID 1445); parameters: species or system Plasmodium falciparum 3D7, 3D7
T3 sequence (O96935 whole entry): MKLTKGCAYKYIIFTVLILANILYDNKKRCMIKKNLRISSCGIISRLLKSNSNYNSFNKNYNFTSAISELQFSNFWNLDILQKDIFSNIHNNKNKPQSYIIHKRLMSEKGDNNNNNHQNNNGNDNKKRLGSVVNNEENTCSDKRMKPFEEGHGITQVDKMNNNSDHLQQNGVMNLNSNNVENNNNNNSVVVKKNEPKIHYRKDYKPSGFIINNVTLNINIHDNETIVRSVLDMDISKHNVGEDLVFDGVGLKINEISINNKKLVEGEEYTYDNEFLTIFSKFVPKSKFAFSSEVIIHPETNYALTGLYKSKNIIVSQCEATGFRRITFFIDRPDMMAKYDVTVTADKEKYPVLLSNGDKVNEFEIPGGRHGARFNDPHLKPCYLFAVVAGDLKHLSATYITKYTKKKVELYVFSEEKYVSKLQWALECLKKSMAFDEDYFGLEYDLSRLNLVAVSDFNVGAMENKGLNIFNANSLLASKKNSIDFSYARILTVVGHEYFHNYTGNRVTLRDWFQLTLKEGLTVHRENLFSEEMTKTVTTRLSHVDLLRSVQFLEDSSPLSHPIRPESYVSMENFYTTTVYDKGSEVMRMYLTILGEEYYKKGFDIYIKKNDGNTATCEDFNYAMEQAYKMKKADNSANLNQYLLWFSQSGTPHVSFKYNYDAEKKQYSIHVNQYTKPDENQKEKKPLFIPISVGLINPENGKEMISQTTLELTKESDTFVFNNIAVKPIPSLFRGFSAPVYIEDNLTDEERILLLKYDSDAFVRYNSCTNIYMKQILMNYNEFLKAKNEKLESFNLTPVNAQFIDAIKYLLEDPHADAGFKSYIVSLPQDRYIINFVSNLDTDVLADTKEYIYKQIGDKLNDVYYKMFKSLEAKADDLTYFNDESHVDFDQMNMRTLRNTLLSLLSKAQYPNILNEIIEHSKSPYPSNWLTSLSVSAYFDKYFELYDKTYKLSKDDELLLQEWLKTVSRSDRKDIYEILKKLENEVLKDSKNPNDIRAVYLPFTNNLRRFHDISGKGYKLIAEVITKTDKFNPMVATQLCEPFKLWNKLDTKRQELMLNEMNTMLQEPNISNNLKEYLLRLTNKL

SUMO-activating enzyme [8] = biological target: T4, SUMO-activating enzyme (Homo sapiens, UniProt Q9UBT2); test: blockers of UBC9-mediated SUMO conjugation – biochemical, AlphaScreen, SUMOylation inhibitor project, confirmation (AID 2018); type: functional
SUMO-activating enzyme [9] = biological target: T4, SUMO-activating enzyme; test: blockers of SAE1/SAE2–UBC9 SUMO transfer – biochemical, HTRF, uHTS, primary screen (AID 2006); type: protein-complex assay
Cysteine protease ATG4B = biological target: T5, Cysteine protease ATG4B (Homo sapiens, UniProt Q9Y4P1); type: functional;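 note: Fluorescence-based dose-response confirmation assay measuring inhibition of ATG4B activity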
T5 sequence (Q9Y4P1 whole entry): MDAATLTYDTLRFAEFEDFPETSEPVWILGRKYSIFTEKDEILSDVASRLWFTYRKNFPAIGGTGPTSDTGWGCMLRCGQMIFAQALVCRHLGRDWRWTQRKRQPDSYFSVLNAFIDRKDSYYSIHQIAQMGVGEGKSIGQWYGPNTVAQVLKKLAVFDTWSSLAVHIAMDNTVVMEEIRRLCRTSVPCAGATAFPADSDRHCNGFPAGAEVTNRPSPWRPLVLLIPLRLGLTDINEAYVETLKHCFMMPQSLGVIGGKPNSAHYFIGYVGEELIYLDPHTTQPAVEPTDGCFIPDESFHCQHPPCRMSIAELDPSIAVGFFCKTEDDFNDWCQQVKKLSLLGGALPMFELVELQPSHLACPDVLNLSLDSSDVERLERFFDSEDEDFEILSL

Phospholipase A2 = Phospholipase A2 (Homo sapiens, UniProt P04054); type: functional;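 note: confirmatory dose-response counterscreen on phospholipase A2, testing hits that came from an ultra-high-throughput screen for ATG4B inhibitors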
[10] = NIH-3T3 fibroblast cytotoxicity, dose response, cytotoxicity control, cell-based, fluorescence, Alamar Blue, secondary assay (AID 2327); type: functional;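 note: NIH-3T3 mouse fibroblasts cultured with fluconazole at 8 µg/mL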
[11] = Luminescence Cell-Based Dose Confirmation HTS to Identify Activators of 5'UTR Stem-Loop Driven Alpha-Synuclein mRNA Translation in H4 Neuroglioblastoma Cells. [Related pubchem assays: 1829 (Project Summary), 1814 (Primary HTS)]; type: functional
[12] = Luminescence Cell-Based Dose Response HTS to Identify Activators of Luciferase Translation or Activity in H4 […] Cells. [Related pubchem assays: 1829 (Project Summary), 1814 (Primary HTS)]; type: functional
H4 = test: Luminescence Cell-Based Dose Response HTS to Identify Activators of 5'UTR Stem-Loop Driven Prion Protein mRNA Translation in H4 Neuroglioblastoma Cells. [Related pubchem assays: 1829 (Project Summary), 1814 (Primary HTS)]; type: functional; conditions: Homo sapiens
[13] = fluconazole-exposed Candida albicans growth modulators – fluorescence, retest, confirmation (AID 2467); type: functional, cell-based
[14] = THP-1 cell cytotoxicity, dose response, cytotoxicity control for non-replicating M. tuberculosis project (AID 489025); type: functional
[15] = HepG2 cell cytotoxicity, dose response, cytotoxicity control for non-replicating M. tuberculosis project (AID 489018); type: functional; conditions: Mycobacterium tuberculosis
[16] = Vero E6 cell cytotoxicity, dose response, cytotoxicity control for non-replicating M. tuberculosis project, secondary assay (AID 492998); type: functional, VeroE6; conditions: Vero C1008
cells = type: functional
Vero = test: cells; type: functional; conditions: Chlorocebus sabaeus

T4 sequence (Q9UBE0 whole entry): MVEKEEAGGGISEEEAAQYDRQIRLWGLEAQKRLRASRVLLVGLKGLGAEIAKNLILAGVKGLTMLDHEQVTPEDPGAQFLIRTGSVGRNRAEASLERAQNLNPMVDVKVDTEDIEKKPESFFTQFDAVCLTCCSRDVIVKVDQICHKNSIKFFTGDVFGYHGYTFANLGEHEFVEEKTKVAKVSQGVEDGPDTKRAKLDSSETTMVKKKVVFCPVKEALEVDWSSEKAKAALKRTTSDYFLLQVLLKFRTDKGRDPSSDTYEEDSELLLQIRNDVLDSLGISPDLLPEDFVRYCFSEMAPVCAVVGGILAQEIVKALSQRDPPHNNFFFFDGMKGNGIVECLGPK
T4 sequence (Q9UBT2 whole entry): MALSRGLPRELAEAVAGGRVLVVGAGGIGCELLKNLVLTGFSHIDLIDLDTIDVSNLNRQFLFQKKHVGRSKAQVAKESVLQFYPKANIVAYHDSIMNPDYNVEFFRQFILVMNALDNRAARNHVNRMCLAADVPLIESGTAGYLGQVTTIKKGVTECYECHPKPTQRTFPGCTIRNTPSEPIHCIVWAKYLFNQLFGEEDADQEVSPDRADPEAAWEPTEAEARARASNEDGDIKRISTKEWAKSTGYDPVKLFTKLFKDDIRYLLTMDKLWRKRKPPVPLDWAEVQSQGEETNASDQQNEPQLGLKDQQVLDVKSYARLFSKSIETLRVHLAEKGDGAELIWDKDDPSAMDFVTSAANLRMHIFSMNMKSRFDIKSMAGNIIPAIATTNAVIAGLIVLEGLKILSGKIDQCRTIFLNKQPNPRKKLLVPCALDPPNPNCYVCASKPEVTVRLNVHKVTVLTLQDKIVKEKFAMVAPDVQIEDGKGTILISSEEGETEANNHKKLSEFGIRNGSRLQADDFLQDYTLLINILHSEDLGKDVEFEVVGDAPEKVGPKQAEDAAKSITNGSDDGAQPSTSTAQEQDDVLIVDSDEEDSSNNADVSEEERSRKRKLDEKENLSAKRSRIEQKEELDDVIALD
Phospholipase A2, sequence (P04054 whole entry): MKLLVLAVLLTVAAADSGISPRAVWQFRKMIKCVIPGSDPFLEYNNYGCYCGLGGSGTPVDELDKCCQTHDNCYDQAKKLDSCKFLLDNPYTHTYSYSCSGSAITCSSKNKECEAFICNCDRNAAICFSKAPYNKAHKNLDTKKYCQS

With `Cc1nn(-c2ccccc2)nc1C(=O)Nc1nnc(C(F)(F)F)s1` the IC50 [1] was 17.4 µM (active).

With `COc1ccc(NC(=O)NNC(=O)CCC(=O)Nc2ccccc2Cl)cc1` the IC50 (HEK293 [2]) was > 67.5 µM (inactive) and the IC50 [3] was > 67.5 µM (inactive).

In the case of `COc1cc2ncnc(NCCc3ccccc3)c2cc1OC`, the EC50 (HEK293 [4]) is reported as 19 µM (active), the IC50 (HEK293 [5]) is reported as > 20 µM (inactive) and the IC50 (HEK293 [6]) is reported as > 20 µM (inactive). The IC50 (HEK293 [7]) was 19.3 µM (inactive).

With `COc1cccc(-c2nc(SCC(=O)Nc3nc(-c4ccccc4)c(C)s3)[nH]c(=O)c2C#N)c1` the IC50 (Aminopeptidase N) was 21.2 µM (active), the IC50 (SUMO-activating enzyme [8]) was 5.37 µM (active) and the IC50 (SUMO-activating enzyme [9]) was 15.2 µM (active). For the same compound, the IC50 (Cysteine protease ATG4B) was 14.9 µM (active) and the IC50 (Phospholipase A2) was 15 µM (active).

In the case of `O=C(Nc1cccc2ccccc12)c1ccc([N+](=O)[O-])o1`, the EC50 [10] is reported as > 150 µM (inactive), the EC50 [11] is reported as > 120 µM (not active) and the EC50 [12] is reported as > 120 µM (not active). The EC50 (H4) was > 120 µM (not active), the EC50 [13] was 1.51 µM (active) and the CC50 [14] was 12.7 µM (active). For the same compound, the CC50 [15] was 15.1 µM (active), the CC50 [16] was 6.37 µM (active) and the IC50 (cells) was 5.22 µM (active). The CC50 (Vero) was 17.8 µM (active).
